Assays:
[1] = system: MCF-7 breast cancer cells; assay: Inhibition of clonal growth of MCF-7 cells; format: cell-based, human; details: effective dose that inhibited 50% clonal growth of MCF-7 breast cancer cells
[2] = system: BNX nu/nu mice; assay: Hair growth scoring in nude mice; format: in vivo; parameters: key to Peak Score, Mouse 2: 1: Skin pink, no hair; 2: Skin thick, pigmented, no hair; 3: Skin thick, highly pigmented, no hair; 4: Skin thick, pigmented, scattered hair; 5: Hair 1-10% of area; 6: Hair 10-25% of area; 7: Hair 25-50% of area; 8: Hair 50-75% of area; 9: Hair >75% of area; Hair 100% covered
Description: In the experiments described herein, BNX nu/nu male and female mice at 8 weeks of age were used. In one series of experiments, a total of 3 males were allotted equally within each of the groups consisting of 6 different vitamin D3 compounds, and a control untreated group. In an addition, three male and 3 female mice received EB1089. All of the analogs were injected intraperitoneally (i.p.), three times a week in a volume of 200 μl phosphate buffered saline.
(§1) Vitamin D3 analogs were dissolved in absolute ethanol prior to determining the molar concentration as measured by UV absorbance using their molar extinction coefficient at […]. All the analogs were stored at −20° C. in absolute ethanol as stock solutions of 10^−3 mol/liter. The last dilution was made in phosphate buffered saline, prior to administration into mice. Vitamin D3 compounds were always protected from light. The inventors chose the highest dose that would not cause hypercalcemia. These doses, identified in previous experiments, are summarized below in Table 1.
The inventors developed the following scale for measuring hair growth in BNX mice:
The inventors examined hair growth of nude mice as the mice received diluant (control mice), 1.25(OH)2D3 or one of 6 vitamin D3 analogs. Each group contained three mice. The effect of Vitamin D3 analogs on hair growth of nude mice was systematically assessed on each mouse by giving them scores from a scale of 1-10 (Table1), 3 times a week. The score for hair growth takes in to account the thickness and pigmentation, as both of these characteristics correlate indirectly with induction of anagen, the growth phase of the hair cycle. For example, a score of […] represents skin thickening with heavy pigmentation; this reflects the formation of the hair shaft prior to the protrusion of hair above the skin surface.

[3] = Calcemic properties: highest dose that would not cause hypercalcemia; format: in vivo, mouse; details: identified in previous experiments
Description: as §1

[4] = system: BNX nu/nu mice; assay: Hair growth scoring in nude mice; format: in vivo; parameters: key: 1: Skin pink, no hair; 2: Skin thick, pigmented, no hair; 3: Skin thick, highly pigmented, no hair; 4: Skin thick, pigmented, scattered hair; 5: Hair 1-10% of area; 6: Hair 10-25% of area; 7: Hair 25-50% of area; 8: Hair 50-75% of area; 9: Hair >75% of area; Hair 100% covered; details: male nude mice, i.p. 3 times a week, at least 35 days, hair score scale 1-10
[5] = system: human HL60 myeloid leukemia cells; assay: Inhibition of clonal growth of HL60 cells; format: cell-based; details: effective dose that inhibited 50% clonal growth of human HL60 myeloid leukemia cells
[6] = system: CYP19 gene that encodes the P450 aromatase; assay: RT-PCR RNA analysis of skin samples for CYP19 expression; format: in vivo, mice; details: skin samples at the highest score of 7, RT-PCR, data not shown
Description: Skin samples from mice were processed as is routinely done in the art. RT-PCR was performed to make cDNA which was examined for expression of CYP19 gene that encodes the P450 aromatase (9).
Skin samples at the highest score of 7 from Ro-25-9022 and control skin sample were processed to extract RNA, cDNA was made and amplified for the expression of CYP19 gene that encodes P450 aromatase.

[7] = male nude mice, i.p. 3 times a week, at least 35 days, hair score scale 1-10
[8] = male nude mice, three mice per group, i.p. 3 times a week, hair score scale 1-10
[9] = female nude mice, i.p. 3 times a week, hair score scale 1-10

SMILES | ED50 MCF-7 [1] | Peak Score, Mouse 1 [2, 7] | Peak Score, Mouse 2 [2, 7] | Mean Peak Score [2, 8] | NON-HYPERCALCEMIC DOSE [3] | Peak Score, Mouse 3 [4] | ED50 HL60 [5] | timing of first peak of hair growth, females vs males ([2]; FIG. 3F) | ability to stimulate hair growth in male and female mice ([2]; both males and females) | latency period to achieve maximal hair growth ([2]; female nude mice) | Peak Score, Mouse 1 [2, 9] | Peak Score, Mouse 2 [2, 9] | Peak Score, Mouse 3 [2, 9] | Mean Peak Score ([2]; female nude mice, three mice, i.p. 3 times a week, hair score scale 1-10) | latency period to achieve maximal hair growth ([2]; male nude mice) | time of second cycle of hair growth from the first cycle ([2]; nude mice) | hair growth score reached, not exceeded ([2]; nude mice, scored 3 times a week, scale 1-10) | expression of CYP19 gene (P450 aromatase) vs control skin sample [6]
CC(C)(O)CCCC(CCCC(C)(C)O)[C@H]1CCC2/C(=C/C=C3C[C@@H](O)C[C@H](O)C3)CCC[C@@]21C (stereo partly shown) [Ro27-5646] | 4 × 10^−10 MOLAR UNITS | 8 (Hair 50-75% of area) | 8 (Hair 50-75% of area) | 7.33 | 0.01 μg/mouse | 6 (Hair 10-25% of area) | 2 × 10^−10 MOLAR UNITS |  |  |  |  |  |  |  |  |  |  | 
C=C1/C(=C\C=C2/CCC[C@]3(C)[C@@H]([C@H](C)/C=C/C=C/C(O)(CC)CC)CC[C@@H]23)C[C@@H](O)C[C@@H]1O [EB1089] |  | 7 (Hair 25-50% of area) | 8 (Hair 50-75% of area) | 6.33 | 0.5 µg/kg | 4 | 5 × 10^−11 MOLAR UNITS | first peak of hair growth in females slightly preceded the peak in the males | Both males and females had hair stimulation | about 9 days | 7 (Hair 25-50% of area) | 7 (Hair 25-50% of area) | 7 (Hair 25-50% of area) | 7.00 | about 18 days | about 16 days |  | 
C=C1/C(=C\C=C2/CCC[C@]3(C)[C@@H]([C@@H](C)OCCCC(O)(CC)CC)CC[C@@H]23)C[C@@H](O)C[C@@H]1O [KH1060, 1α, 25—(OH)2-20-epi-22-oxa-24,26,27-trishomo-vitamin D3] | 1 × 10^−10 MOLAR UNITS | 8 (Hair 50-75% of area) | 6 (Hair 10-25% of area) | 6.67 | 0.0125 μg/mouse | 6 (Hair 10-25% of area) | 1 × 10^−12 MOLAR UNITS |  |  |  |  |  |  |  | ~21 days |  |  | 
C=C1/C(=C\C=C2/CCC[C@]3(C)[C@@H]([C@H](C)CCCC(C)(C)O)CC[C@@H]23)C[C@@H](O)C[C@@H]1O [1,25(OH)2D3, reference compound] | 1 × 10^−7 MOLAR UNITS | 5 (Hair 1-10% of area) | 5 (Hair 1-10% of area) | 4.67 | 0.0626 μg/mouse | 4 | 1 × 10^−8 MOLAR UNITS |  |  |  |  |  |  |  |  |  | 5 (Hair 1-10% of area) | 
C[C@]12CCC/C(=C\C=C3C[C@@H](O)C[C@H](O)C3)C1CC[C@@H]2C1(C/C=C/C(O)(C(F)(F)F)C(F)(F)F)CC1 (stereo partly shown) [Ro27-0574] | 2 × 10^−9 MOLAR UNITS | 8 (Hair 50-75% of area) | 8 (Hair 50-75% of area) | 6.67 |  | 4 | 2 × 10^−10 MOLAR UNITS |  |  |  |  |  |  |  |  | about 16 days |  | 
C[C@H](C/C=C/C(O)(C(F)(F)F)C(F)(F)F)C1=CCC2/C(=C/C=C3C[C@@H](O)C[C@H](O)C3)CCC[C@]12C (stereo partly shown) [Ro25-9022, 1,25-(OH)2-16-ene-23-yne-26,27-F6-19-nor-D3] | 6 × 10^−10 MOLAR UNITS | 8 (Hair 50-75% of area) | 4 | 6.33 | 0.00125 μg/mouse | 4 | 2 × 10^−10 MOLAR UNITS |  |  |  |  |  |  |  |  |  |  | equivalent expression
C[C@H](CCC(=O)C(C)(C)O)C1=CCC2/C(=C/C=C3C[C@@H](O)C[C@H](O)C3)CCC[C@]12C (stereo partly shown) [Ro26-9114] |  | 8 (Hair 50-75% of area) | 8 (Hair 50-75% of area) | 5.33 | 6 μg/mouse | 4 | 1 × 10^−10 MOLAR UNITS |  |  |  |  |  |  |  | about 9 days | about 16 days |  | 
